Results: patent publication US20220133702A1, “CYSTIC FIBROSIS TRANSMEMBRANE CONDUCTANCE REGULATOR MODULATORS FOR TREATING AUTOSOMAL DOMINANT POLYCYSTIC KIDNEY DISEASE” (The Johns Hopkins University, priority 2020, published 2022)

Assays:
cAMP in PN cells = experiment: Cyclic AMP enzyme immunoassay in cells; format: cell-based, mouse; conditions: for increase of cAMP activity: PN cells treated with forskolin or IBMX
Experimental: FIG. 4A, FIG. 4B, FIG. 4C, FIG. 4D, and FIG. 4E show (FIG. 4A-FIG. 4B) cAMP levels are reduced by VX-809. (FIG. 4A) cAMP levels in mouse tissue were reduced by VX-809. The kidney samples (n=6) analyzed were taken from those depicted in FIG. 1. (FIG. 4B) Confluent PN and PH cells were treated with VX-809 (10 μM) or DMSO for 16 hand then treated with forskolin (100 μM) for 30 min before the cells were harvested for the assay. Columns represent means±SEM. Statistical analysis was performed using a two-tailed Student's t-test. Each set of data is from three individual wells; Note that resting cAMP is greater in PN vs PH cells as previously shown (25). Also note that forskolin caused a large increase in cAMP. A smaller increase occurred with IBMX. However, the increase induced by forskolin alone was similar to that by IBMX plus forskolin. […] (FIG. 4C, FIG. 4D, and FIG. 4E) Adenylyl cyclase expression. (FIG. 4C) Western blot showing the expression of adenylyl cyclase (AC) 6 and AC3 in treated and control PN cells. (FIG. 4D-FIG. 4E) Columns represent means±SEM of the AC3 and AC6 expression. The data were analyzed by non-parametric t-test. The experiment was repeated four times. For all graphs, *P<0.05, **P<0.01, and ***P<0.001;
It has been shown previously in both animal and cell culture models of ADPKD that cells lacking functional PC1 have elevated cAMP levels when compared to normal. To assess the effect of CFTR correctors, cAMP activity was measured in PC1 conditional knockout mouse kidneys and in PN cells that were either left untreated or treated with VX-809. […] Cells were treated with forskolin, which increased cAMP levels drastically (FIG. 4B). It should be noted that VX-809 reduced the forskolin-induced increase in cAMP, indicating a direct action of VX-809 on adenylyl cyclase activity. […] Treating PN cells with forskolin or IBMX (FIG. 4B) increased the cAMP activity by approximately 10-fold.
Cyclic AMP assay. Confluent cells were treated with VX-809 (10 μM) or DMSO for 16 h before being harvested for assay. Cyclic AMP levels were measured with a direct cAMP Enzyme Immunoassay Kit (Sigma, #CA200) according to the manufacturer's protocol. The results are expressed as pmole/ml. Statistical analysis was performed using a two-tailed Student's t-test.

[1] = tested on: Hsp27, Hsp70, and Hsp90 in PN cells; experiment: Disappearance of Hsps after translation block with cycloheximide; format: cell-based, mouse; conditions: cycloheximide 25 μM alone, over 8 h
Experimental: FIG. 9A, FIG. 9B, FIG. 9C, FIG. 9D, FIG. 9E, FIG. 9F, FIG. 9G, and FIG. 9H show Hsp27, HSp70, and Hsp90 expression in PN cells treated with VX-809 and/or cycloheximide. (A) Pkd1 null (PN) cells were treated with VX-809 (10 μM) and/or with cycloheximide (25 μM) for indicated time points before being harvested for the assay. (FIG. 9A) Western blot showing expression of Hsp27, Hsp70, and Hsp90 in VX-809-(16 h), cycloheximide-treated, or control PN cells. ((FIG. 9B. (FIG. 9C, and (FIG. 9D) Columns represent averages±standard errors of Hsp27, Hsp70, and Hsp90 expression in cells treated with VX-809 and/or cycloheximide. ((FIG. 9E) Western blot showing expression of Hsp27, Hsp70, and Hsp90 in PN cells treated with VX-809+cycloheximide or control PN cells. ((FIG. 9F, FIG. 9G, and FIG. 9H) Columns represent averages±standard errors of Hsp27, Hsp70, and Hsp90 expression in cells treated only with cycloheximide or in control PN cells. Data were analyzed by non-parametric t-test. The experiments were repeated 3-5 times. *P<0.05, **P<0.01;
To gain more insight into the mechanism whereby VX-809 alters Hsp protein levels, translation was inhibited by using cycloheximide and the disappearance of the three Hsps was monitored. […] Hsp90 was reduced by approximately 25%, and Hsp27 was unchanged.

## CC(C)Cn1c(=O)n(C)c(=O)c2[nH]cnc21 [IBMX, 3-isobutyl-1-methylxanthine]
cAMP in PN cells
  increase of cAMP activity: approximately 10 fold

## C[C@@H]1C[C@@H]([C@H](O)CC2CC(=O)NC(=O)C2)C(=O)[C@@H](C)C1 [cycloheximide]
[1]
  steady-state levels of each of the Hsps: unchanged

## C=C[C@@]1(C)CC(=O)[C@]2(O)[C@@]3(C)[C@@H](O)CCC(C)(C)[C@@H]3[C@H](O)[C@H](OC(C)=O)[C@@]2(C)O1 [forskolin]
cAMP in PN cells
  increase of cAMP activity: approximately 10 fold
cAMP in PN cells; forskolin, as stated at the end of Example 4
  elevation of cAMP activity: ~500 fold
